ChEMBL document CHEMBL5291721, “A preclinical secondary pharmacology resource illuminates target-adverse drug reaction associations of marketed drugs” (Nat Commun, 2023)

Key:
[1] = target: T1, Prostaglandin G/H synthase 1 (Homo sapiens, UniProt P23219); format: functional
Thromboxane A2 receptor = target: T2, Thromboxane A2 receptor (Homo sapiens, UniProt P21731); format: functional, cell-based
T2 sequence (P21731 whole entry): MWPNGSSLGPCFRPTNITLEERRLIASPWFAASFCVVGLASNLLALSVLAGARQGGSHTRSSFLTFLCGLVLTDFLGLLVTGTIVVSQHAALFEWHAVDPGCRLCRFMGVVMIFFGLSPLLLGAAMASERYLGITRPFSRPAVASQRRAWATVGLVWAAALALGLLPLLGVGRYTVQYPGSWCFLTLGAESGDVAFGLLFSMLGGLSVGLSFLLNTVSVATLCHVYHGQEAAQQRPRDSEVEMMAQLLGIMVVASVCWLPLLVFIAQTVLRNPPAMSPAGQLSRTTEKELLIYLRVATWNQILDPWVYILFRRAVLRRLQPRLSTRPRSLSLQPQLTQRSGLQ

[2] = target: T3, Muscarinic acetylcholine receptor M2 (Homo sapiens, UniProt P08172)
T3 sequence (P08172 whole entry): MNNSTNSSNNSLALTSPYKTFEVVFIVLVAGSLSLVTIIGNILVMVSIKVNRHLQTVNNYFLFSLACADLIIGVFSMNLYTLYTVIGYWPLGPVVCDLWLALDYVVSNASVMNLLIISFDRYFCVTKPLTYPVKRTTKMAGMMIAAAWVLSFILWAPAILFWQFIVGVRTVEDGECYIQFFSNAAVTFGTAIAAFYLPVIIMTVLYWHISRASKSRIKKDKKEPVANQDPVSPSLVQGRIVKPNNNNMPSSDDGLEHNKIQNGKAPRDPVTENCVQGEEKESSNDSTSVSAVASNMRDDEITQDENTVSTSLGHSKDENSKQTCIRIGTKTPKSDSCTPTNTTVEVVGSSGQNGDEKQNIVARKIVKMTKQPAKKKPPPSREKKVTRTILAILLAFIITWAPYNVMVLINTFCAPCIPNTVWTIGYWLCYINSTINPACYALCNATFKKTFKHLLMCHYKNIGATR

Prothrombin = Prothrombin (Homo sapiens, UniProt P00734); format: functional
Histamine H3 receptor = Histamine H3 receptor (Homo sapiens, UniProt Q9Y5N1)
Bile salt export pump = Bile salt export pump (Homo sapiens, UniProt O95342); format: functional
Chain of Bile salt export pump (O95342 whole entry): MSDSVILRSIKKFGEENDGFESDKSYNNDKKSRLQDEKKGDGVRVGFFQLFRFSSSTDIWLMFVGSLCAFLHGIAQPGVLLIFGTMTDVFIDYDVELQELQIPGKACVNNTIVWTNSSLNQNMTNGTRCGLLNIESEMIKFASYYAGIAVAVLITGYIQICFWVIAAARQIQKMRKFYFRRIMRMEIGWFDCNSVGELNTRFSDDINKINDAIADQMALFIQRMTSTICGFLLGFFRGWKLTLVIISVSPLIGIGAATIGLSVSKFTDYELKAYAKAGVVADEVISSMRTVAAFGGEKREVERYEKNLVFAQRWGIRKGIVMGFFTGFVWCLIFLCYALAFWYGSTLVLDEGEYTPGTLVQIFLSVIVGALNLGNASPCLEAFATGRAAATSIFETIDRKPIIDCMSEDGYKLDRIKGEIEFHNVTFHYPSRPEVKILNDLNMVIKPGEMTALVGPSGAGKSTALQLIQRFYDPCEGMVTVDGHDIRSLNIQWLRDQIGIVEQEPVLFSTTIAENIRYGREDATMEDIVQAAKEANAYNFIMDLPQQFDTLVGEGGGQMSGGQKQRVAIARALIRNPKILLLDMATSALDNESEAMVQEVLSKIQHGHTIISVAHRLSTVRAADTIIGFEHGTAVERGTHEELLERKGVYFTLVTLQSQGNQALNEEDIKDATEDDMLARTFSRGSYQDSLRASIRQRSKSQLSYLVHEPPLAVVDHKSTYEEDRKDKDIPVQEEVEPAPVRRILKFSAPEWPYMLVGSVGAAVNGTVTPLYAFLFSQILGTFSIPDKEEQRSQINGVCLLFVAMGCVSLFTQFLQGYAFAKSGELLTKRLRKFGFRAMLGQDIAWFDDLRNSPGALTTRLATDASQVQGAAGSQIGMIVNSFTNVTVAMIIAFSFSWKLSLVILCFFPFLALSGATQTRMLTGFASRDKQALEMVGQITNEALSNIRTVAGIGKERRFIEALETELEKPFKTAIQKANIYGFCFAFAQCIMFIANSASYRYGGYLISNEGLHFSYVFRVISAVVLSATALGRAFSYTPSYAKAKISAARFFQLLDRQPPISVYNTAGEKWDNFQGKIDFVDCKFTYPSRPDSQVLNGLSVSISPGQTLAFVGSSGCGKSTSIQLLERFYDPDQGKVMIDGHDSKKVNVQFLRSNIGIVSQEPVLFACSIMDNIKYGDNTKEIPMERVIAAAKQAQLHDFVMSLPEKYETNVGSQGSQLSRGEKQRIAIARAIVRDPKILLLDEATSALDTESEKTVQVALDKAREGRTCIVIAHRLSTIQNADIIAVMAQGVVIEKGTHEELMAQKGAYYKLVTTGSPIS

Acetylcholinesterase = Acetylcholinesterase (Homo sapiens, UniProt P22303); format: functional
[3] = target: T4, 5-hydroxytryptamine receptor 1A (Homo sapiens, UniProt P08908)
T4 sequence (P08908 whole entry): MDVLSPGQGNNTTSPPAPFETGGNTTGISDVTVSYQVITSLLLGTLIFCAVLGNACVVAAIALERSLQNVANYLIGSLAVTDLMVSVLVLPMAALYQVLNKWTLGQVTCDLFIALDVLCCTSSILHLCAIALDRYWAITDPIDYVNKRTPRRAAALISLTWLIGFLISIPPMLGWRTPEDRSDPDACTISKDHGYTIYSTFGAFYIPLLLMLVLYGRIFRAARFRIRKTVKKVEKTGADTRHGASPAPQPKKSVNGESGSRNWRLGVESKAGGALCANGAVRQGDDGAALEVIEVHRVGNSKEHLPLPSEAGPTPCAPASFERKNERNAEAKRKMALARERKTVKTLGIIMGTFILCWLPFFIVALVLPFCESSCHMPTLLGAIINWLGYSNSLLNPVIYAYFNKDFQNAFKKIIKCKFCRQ

[4] = target: cGMP-inhibited 3',5'-cyclic phosphodiesterase 3A (Homo sapiens, UniProt Q14432); format: functional
[5] = target: T5, Alpha-2A adrenergic receptor (Homo sapiens, UniProt P08913)
T5 sequence (P08913 whole entry): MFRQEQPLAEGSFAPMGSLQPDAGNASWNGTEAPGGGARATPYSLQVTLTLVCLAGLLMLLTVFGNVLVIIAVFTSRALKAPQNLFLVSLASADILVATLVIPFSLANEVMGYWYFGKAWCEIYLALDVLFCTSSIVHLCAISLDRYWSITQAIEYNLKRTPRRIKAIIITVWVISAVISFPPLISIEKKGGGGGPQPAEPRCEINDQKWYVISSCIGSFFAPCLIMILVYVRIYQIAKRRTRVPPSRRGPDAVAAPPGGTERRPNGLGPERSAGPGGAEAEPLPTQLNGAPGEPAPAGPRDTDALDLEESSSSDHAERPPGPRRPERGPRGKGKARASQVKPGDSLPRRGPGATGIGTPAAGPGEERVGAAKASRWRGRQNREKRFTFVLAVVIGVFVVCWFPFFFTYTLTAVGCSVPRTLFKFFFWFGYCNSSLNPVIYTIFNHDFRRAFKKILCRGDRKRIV

[6] = target: T1, Prostaglandin G/H synthase 1; format: functional; remark: listed apart in the source
[7] = target: 3',5'-cyclic-AMP phosphodiesterase 4A (Homo sapiens, UniProt P27815); format: functional
Chain of 3',5'-cyclic-AMP phosphodiesterase 4A (P27815 whole entry): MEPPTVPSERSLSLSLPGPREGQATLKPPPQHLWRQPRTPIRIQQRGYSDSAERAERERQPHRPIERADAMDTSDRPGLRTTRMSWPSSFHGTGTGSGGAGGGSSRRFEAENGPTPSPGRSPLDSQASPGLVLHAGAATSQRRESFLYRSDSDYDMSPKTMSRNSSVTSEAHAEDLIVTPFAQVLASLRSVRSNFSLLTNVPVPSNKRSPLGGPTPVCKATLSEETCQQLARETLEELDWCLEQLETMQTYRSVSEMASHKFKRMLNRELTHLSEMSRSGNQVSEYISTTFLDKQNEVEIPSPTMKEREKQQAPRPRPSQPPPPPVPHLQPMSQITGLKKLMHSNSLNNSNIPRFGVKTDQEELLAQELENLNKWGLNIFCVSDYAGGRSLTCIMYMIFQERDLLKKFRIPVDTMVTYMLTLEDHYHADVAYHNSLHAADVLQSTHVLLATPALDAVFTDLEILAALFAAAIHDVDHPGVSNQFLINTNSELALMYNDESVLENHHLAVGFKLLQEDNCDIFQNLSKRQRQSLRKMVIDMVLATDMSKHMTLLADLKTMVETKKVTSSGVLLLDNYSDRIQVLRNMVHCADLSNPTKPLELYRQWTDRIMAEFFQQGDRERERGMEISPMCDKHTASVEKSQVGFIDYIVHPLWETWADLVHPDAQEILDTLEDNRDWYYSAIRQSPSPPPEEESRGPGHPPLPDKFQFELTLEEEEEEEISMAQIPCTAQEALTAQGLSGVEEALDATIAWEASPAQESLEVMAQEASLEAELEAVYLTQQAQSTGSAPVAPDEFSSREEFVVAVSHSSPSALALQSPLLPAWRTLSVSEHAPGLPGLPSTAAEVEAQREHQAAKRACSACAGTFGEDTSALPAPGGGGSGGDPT

D(3) dopamine receptor = D(3) dopamine receptor (Homo sapiens, UniProt P35462)
Chain of D(3) dopamine receptor (P35462 whole entry): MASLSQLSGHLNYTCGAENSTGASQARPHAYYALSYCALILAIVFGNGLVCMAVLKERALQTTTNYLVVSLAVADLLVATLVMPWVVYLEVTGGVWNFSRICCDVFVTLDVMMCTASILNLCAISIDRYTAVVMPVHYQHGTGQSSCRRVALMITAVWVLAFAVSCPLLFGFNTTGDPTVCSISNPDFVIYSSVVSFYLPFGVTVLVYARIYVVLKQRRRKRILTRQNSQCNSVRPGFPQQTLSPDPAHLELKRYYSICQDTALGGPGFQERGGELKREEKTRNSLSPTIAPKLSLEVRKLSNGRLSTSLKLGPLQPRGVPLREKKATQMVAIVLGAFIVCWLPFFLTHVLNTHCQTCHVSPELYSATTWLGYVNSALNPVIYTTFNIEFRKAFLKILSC

[8] = target: Sodium-dependent dopamine transporter (Homo sapiens, UniProt Q01959)
Chain of Sodium-dependent dopamine transporter (Q01959 whole entry): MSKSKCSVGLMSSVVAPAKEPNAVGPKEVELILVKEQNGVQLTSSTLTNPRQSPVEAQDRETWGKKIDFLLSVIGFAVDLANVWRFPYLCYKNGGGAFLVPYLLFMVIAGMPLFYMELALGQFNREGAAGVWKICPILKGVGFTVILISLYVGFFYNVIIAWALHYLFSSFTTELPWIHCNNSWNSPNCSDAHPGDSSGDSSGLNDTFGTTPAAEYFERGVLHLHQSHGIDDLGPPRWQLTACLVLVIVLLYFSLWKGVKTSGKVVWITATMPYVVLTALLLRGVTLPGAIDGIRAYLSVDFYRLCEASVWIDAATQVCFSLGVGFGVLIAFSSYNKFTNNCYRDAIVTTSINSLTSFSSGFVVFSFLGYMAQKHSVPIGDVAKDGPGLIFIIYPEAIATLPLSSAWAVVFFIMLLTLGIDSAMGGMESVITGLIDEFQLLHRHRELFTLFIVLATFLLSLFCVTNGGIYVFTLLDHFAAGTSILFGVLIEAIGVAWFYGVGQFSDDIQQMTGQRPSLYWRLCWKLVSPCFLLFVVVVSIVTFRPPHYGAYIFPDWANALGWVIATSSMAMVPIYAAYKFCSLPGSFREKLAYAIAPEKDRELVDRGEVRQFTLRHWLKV

[9] = target: Voltage-gated inwardly rectifying potassium channel KCNH2 (Homo sapiens, UniProt Q12809); format: functional; conditions: read-out: AC50
Chain of Voltage-gated inwardly rectifying potassium channel KCNH2 (Q12809 whole entry): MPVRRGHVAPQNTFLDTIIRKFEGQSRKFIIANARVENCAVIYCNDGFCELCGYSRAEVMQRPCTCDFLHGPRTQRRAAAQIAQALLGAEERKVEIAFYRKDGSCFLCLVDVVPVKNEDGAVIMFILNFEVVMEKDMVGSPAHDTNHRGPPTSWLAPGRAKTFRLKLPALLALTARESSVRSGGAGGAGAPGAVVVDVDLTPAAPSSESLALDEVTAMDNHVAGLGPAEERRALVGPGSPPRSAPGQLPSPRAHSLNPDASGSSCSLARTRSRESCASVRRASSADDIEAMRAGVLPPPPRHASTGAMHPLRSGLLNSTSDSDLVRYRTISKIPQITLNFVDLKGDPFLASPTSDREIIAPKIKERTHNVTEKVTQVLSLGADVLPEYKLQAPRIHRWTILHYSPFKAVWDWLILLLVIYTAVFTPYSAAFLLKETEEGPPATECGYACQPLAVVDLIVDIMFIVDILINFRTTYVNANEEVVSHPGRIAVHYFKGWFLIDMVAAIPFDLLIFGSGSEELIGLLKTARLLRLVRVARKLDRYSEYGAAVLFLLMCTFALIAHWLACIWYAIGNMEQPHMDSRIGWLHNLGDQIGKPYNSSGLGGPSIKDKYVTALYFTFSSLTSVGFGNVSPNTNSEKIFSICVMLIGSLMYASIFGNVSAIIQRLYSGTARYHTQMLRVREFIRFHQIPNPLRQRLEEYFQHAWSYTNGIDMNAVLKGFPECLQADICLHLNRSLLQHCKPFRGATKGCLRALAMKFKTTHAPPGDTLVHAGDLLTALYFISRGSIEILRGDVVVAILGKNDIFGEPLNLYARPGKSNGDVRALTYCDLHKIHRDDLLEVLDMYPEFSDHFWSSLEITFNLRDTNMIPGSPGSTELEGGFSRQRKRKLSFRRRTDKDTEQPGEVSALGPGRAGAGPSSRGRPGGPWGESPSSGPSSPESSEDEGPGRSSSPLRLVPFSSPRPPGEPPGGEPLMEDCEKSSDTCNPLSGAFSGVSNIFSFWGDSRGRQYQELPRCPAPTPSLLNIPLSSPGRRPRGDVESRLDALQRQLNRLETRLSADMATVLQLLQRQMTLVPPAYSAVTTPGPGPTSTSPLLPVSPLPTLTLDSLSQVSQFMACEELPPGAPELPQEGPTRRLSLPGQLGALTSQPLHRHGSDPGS

D(1A) dopamine receptor = D(1A) dopamine receptor (Homo sapiens, UniProt P21728)
Chain of D(1A) dopamine receptor (P21728 whole entry): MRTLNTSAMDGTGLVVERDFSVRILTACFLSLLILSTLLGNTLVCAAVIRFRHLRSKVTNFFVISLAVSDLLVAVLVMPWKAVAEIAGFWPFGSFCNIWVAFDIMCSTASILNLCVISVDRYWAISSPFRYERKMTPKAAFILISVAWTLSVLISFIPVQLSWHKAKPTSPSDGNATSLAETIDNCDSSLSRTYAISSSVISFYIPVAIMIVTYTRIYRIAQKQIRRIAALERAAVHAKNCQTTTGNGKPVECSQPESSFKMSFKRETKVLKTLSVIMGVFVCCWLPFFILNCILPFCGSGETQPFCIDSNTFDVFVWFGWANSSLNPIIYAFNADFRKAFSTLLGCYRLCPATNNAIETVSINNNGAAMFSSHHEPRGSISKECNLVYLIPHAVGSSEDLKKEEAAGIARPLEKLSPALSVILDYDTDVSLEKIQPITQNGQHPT
Also: assay procedure not described here.

SMILES	AC50 [1] [µM]	AC50 (Thromboxane A2 receptor) [µM]	AC50 [2] [µM]	AC50 (Prothrombin) [µM]	AC50 (Histamine H3 receptor) [µM]	AC50 (Bile salt export pump) [µM]	AC50 (Acetylcholinesterase) [µM]	AC50 [3] [µM]	AC50 [4] [µM]	AC50 [5] [µM]	AC50 [6] [µM]	AC50 [7] [µM]	AC50 (D(3) dopamine receptor) [µM]	AC50 [8] [µM]	AC50 [9] [µM]	AC50 (D(1A) dopamine receptor) [µM]
O=C(O)COc1nn(Cc2ccccc2)c2ccccc12 [BENDAZAC]	> 30	> 30	> 30	> 30	> 30	260	> 30	> 30	> 30	> 30	> 30	> 30	> 30	> 30	> 30	> 30
Cc1ccc([C@@H]2O[C@H](CO)[C@@H](O)[C@H](O)[C@H]2O)cc1Cc1ccc(-c2ccc(F)cc2)s1 [CANAGLIFLOZIN ANHYDROUS]	> 30	> 30	> 30	> 30	> 30	38	> 30	> 30	> 30	> 30	> 30	> 30	> 30	3.54	> 30	> 30
O=C(O)CCCc1ccc(N(CCCl)CCCl)cc1 [CHLORAMBUCIL]	> 30	> 30	> 30	> 30	> 30	270	> 30	> 30	> 30	> 30	> 30	> 30	> 30	> 30	> 30	> 30
Cn1c(=O)c2c(ncn2CC(O)CO)n(C)c1=O (stereo unspecified) [DYPHYLLINE]	> 30	> 30	> 30	> 30	> 30	> 300	> 30	> 30	> 30	> 30	> 30	> 30	> 30	> 30	> 30	> 30
C#Cc1cccc(Nc2ncnc3cc(OCCOC)c(OCCOC)cc23)c1 [ERLOTINIB]	> 30	> 30	13.2	> 30	> 30	6.1	> 30	> 30	> 30	> 30	0.0388	> 30	> 30	> 30	> 30	> 10
CCC(=O)O[C@@H](O[P@](=O)(CCCCc1ccccc1)CC(=O)N1C[C@H](C2CCCCC2)C[C@H]1C(=O)O)C(C)C [FOSINOPRIL]	> 30	> 30	> 30	> 30	> 30	11	> 30	> 30	> 30	> 30	> 30	> 30	> 30	> 30	> 30	> 30
